Data on one molecule can be found in US9447014B2, “Tromethamine salt of bimatoprost acid in crystalline form, methods for preparation, and methods for use thereof” (ALLERGAN, INC., priority 2012, dated 2016).

Structures can show the parent of a compound that is named as a salt. Where two headings read alike, the source gives them in different places. Some results are limits rather than exact numbers.

Holding throughout (assay type): physicochemical
Data set [1] in a line: physical stability on storage.
The nature of data set [2]: gravimetric vapor sorption (GVS) analysis. An excerpt: At relative humidity above 80% RH, tromethamine salt of bimatoprost acid behaves hygroscopic with a a significant moisture uptake observed. The significant uptake of moisture may be a result of the large specific surface area of the material. On desorption, the adsorbed water was rapidly lost with no equilibrium established. At the end of the gravimetric vapor sorption (GVS) cycle, at 40% RH, the overall sample mass increased by 5 wt %.

Data set [3] in a line: dissolution rate compared with the free acid.
The nature of data set [4]: solubility of the tromethamine salt.

As for `O=C(O)CCC/C=C/CC1C(O)CC(O)C1/C=C/C(O)CCc1ccccc1` (stereo not shown) [tromethamine salt of bimatoprost acid, tromethamine salt of 7-[3,5-Dihydroxy-2-(3-hydroxy-5-phenyl-pent-1-enyl)-cyclopentyl]-hept-5-enoic acid], the physical stability in data set [1] (25° C./60% RH in open container closure) and in data set [1] (40° C./75% RH in closed container closure) was > 3 months in each case. Besides, in data set [2] (90% RH), the “GVS analysis: deliquescence” value is given as “no deliquescence”. The “GVS analysis: hydrate formation” value in data set [2] (90% RH) was “no hydrate”. In addition, the “overall sample mass increase at the end of the GVS cycle” value in data set [2] (end of GVS cycle, at 40% RH) stood at 5 wt %. For the same molecule, in data set [2] (post GVS analysis), the “XRPD re-analysis post GVS analysis (change in crystalline form)” value is reported as “no change in the crystalline Form 1”. In addition, in data set [2] (relative humidity above 80% RH), the “hygroscopic behaviour (moisture uptake)” value was “hygroscopic”. Besides, in data set [3], the dissolution rate entry is “faster dissolution rate than the free acid”. Moreover, the solubility in data set [4] (aqueous buffer, at pH 6.5, read-out: solubility) is > 250 mg/mL; in data set [4] (in formulation vehicles, no surfactant needed), ~25 w/v %.
